Data taken from PMC12005787, “Synthetic Lethality of SHP2 and XIAP Suppresses Proliferation and Metastasis in KRAS‐mutant Nonsmall Cell Lung Cancer” (Advanced Science, 2025).
Where two headings read alike, the source gives them in different places.

Experiments:
Assay in all cases: Cell viability assay (CCK-8)
Format in all cases: cell-based
A549 cells = details: Homo sapiens
Description: (§1) supplies are listed in Supplementary Table S5. […]
(§2) KRAS-mutant and wild-type cells are listed in Supplementary Table S7.
(§3) For the adherent cell viability assay, cells in the logarithmic growth phase were seeded in 96-well culture plates at a density of 5×103 well-1 and incubated overnight. Diluted compounds or DMSO were added, or specific treatments were incubated at 37 °C and 5% CO2 for 24 h or 48 h. Cell viability was determined using CCK-8 or CellLightTM Cell Viability Assay Kit, according to the manufacturer's protocol. The luminescence signals of the treated samples were normalized to those of the DMSO group. […]

ACHN cells = details: Homo sapiens
Description: as §1, §2, §3

HCT15 cells = details: Homo sapiens, HCT-15
Description: as §1, §2, §3

Lewis/Luc1 cells = tested on: Lewis/Luc1 cells
Description: as §1, §2, §3

MDA-MB-231 cells = details: Homo sapiens
Description: as §1, §2, §3

NCI-H1155 cells = details: Homo sapiens
Description: as §1, §2, §3

SW1417 cells = details: Homo sapiens
Description: as §1, §2, §3

IC50 (A549 cells; A549, 48 h, read-out: IC50 at 48 h): 6.5 ± 0.9 µM | IC50 (A549 cells; A549, KRAS G12S, 24 h, read-out: IC50 at 24 h): 7.9 µM | IC50 (ACHN cells; 48 h, read-out: IC50 at 48 h): 10.3 ± 0.7 µM | IC50 (ACHN cells; HRAS, 24 h, read-out: IC50 at 24 h): 27.4 ± 0.3 µM | IC50 (HCT15 cells; HCT15, 48 h, read-out: IC50 at 48 h): 9.95 ± 0.38 µM | IC50 (HCT15 cells; HCT15, KRAS G13D, 24 h, read-out: IC50 at 24 h): 12.8 ± 0.43 µM | IC50 (MDA-MB-231 cells; MDA-MB-231, 48 h, read-out: IC50 at 48 h): 11.5 ± 0.7 µM | IC50 (MDA-MB-231 cells; MDA-MB-231, KRAS G13D, 24 h, read-out: IC50 at 24 h): 13.6 ± 0.2 µM | IC50 (NCI-H1155 cells; NCI-H1155, 48 h, read-out: IC50 at 48 h): 7.07 ± 0.45 µM | IC50 (NCI-H1155 cells; NCI-H1155, KRAS Q61H, 24 h, read-out: IC50 at 24 h): 16.1 ± 0.36 µM | IC50 (SW1417 cells; SW1417, 48 h, read-out: IC50 at 48 h): 14.9 ± 0.34 µM | IC50 (SW1417 cells; SW1417, RAS-wild type, 24 h, read-out: IC50 at 24 h): 65.39 ± 0.36 µM
Structure (SMILES): CCCCCCCCCCCC1=C(O)C(=O)C=C(O)C1=O [Embelin]
IC50 (Lewis/Luc1 cells; Lewis/Luc1, 48 h, read-out: IC50 at 48 h): 18.2 ± 0.9 µM | IC50 (Lewis/Luc1 cells; Lewis/Luc1, RAS-wild type, 24 h, read-out: IC50 at 24 h): 20.6 ± 0.6 µM
